This note sets out measurements from publication PMC8160813, “Design, Synthesis, and Evaluation of Dihydropyranopyrazole Derivatives as Novel PDE2 Inhibitors for the Treatment of Alzheimer’s Disease” (Molecules, 2021).

In general, IC50 refers to the point on the concentration scale where inhibition reaches its midpoint.

What all share (type): biochemical
Test [1] has as its target T1, PDE2A (catalytic domain, 580–919) (Homo sapiens, UniProt O00408).
T1 construct: made in house; host or cells: E. coli BL21 (CodonPlus)
The test is described as follows: In vitro PDE2 enzymatic inhibition assay (3H-cGMP substrate). Particulars: for inhibition at 0.5 µM: read-out: Inhibition Ratio (%) 0.5 μM; for IC50: means ± SD of three experiments, 3H-cGMP, 25 °C, 15 min, read-out: IC50 (nM) against PDE2; for inhibition at 0.1 µM: compound at 0.1 μM, read-out: Inhibition Ratio (%) 0.1 μM. Here is the method: Purification and expression of the recombinant pET15b-PDE2A plasmid (catalytic domain, 580–919) was performed following our previously reported method. The plasmid pET15b-PDE2A (catalytic domain, 580–919) was transferred to thawed competent E. coli BL21 cells (CodonPlus, Agilent Technologies, Santa Clara, CA, USA), which were grown in 2XYT medium with 100 μg/mL ampicillin and 20 μg/mL chloramphenicol at 37 °C until OD600 = 0.6–0.8. Then, 0.1 mM isopropylthiogalactoside was added for induction, and protein expression was induced by continuing to grow the cells at 16 °C for 24 h. After that, bacteria were collected by centrifugation and frozen overnight at −20 °C. The bacteria containing the recombinant plasmid of the target protein were subjected to cell disruption and passed through a Ni-NTA agarose affinity column, Q-Sepharose ion-exchange column and other steps. The purity can be 95% or more, and a typical purification batch produces 10–20 mg of PDE2A protein from 1.0 L of cell culture.
Using the appropriate concentration of ^3H-cGMP as the substrate, different compound solutions were added to the test group, DMSO was added to the negative control and blank control groups, and EHNA was added to the positive control group, followed by protein solution (the proteins were all diluted with Assay Buffer); Assay Buffer was added to the blank group. The enzymatic reaction was performed at room temperature (25 °C) for 15 min, and then, 0.2 M ZnSO4 was added to inactivate PDE2 and to stop the reaction. Then, 0.2 N Ba(OH)2 solution was added to precipitate the reaction product, and unreacted ^3H-cGMP remained in the supernatant. After mixing the system, it was centrifuged. The radioactivity of the supernatant was measured with a liquid scintillation counter, and the inhibitory activity of the compound against PDE2 was calculated. The above test was repeated three times (the IC50 test generally used 9 concentrations, and the single-point test was directly diluted with DMSO to the required concentration).

The next test addresses T2, PDE1C (2–634) (Homo sapiens, UniProt Q14123).
T2 construct: PDE1C (2–634)
The test is described as follows: PDE selectivity enzymatic assay, PDE1C. Particulars: Table 2 selectivity panel.

For another test, the target named is T3, PDE4D2 (86–413) (Homo sapiens, UniProt Q08499).
T3 construct: PDE4D2 (86–413)
The test is described as follows: PDE selectivity enzymatic assay, PDE4D2. Particulars: Table 2 selectivity panel.

T1 sequence (O00408 580-919): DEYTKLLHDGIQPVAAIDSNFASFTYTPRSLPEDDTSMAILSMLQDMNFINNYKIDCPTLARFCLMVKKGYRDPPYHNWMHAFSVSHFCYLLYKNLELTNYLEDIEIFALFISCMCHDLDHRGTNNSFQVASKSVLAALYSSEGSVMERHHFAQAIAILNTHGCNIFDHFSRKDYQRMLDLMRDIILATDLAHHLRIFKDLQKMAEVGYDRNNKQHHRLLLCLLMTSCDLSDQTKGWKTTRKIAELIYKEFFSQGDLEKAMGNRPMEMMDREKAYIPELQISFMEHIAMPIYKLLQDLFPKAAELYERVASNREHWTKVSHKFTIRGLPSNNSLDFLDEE
T2 sequence (Q14123 2-634 isoform Q14123-2): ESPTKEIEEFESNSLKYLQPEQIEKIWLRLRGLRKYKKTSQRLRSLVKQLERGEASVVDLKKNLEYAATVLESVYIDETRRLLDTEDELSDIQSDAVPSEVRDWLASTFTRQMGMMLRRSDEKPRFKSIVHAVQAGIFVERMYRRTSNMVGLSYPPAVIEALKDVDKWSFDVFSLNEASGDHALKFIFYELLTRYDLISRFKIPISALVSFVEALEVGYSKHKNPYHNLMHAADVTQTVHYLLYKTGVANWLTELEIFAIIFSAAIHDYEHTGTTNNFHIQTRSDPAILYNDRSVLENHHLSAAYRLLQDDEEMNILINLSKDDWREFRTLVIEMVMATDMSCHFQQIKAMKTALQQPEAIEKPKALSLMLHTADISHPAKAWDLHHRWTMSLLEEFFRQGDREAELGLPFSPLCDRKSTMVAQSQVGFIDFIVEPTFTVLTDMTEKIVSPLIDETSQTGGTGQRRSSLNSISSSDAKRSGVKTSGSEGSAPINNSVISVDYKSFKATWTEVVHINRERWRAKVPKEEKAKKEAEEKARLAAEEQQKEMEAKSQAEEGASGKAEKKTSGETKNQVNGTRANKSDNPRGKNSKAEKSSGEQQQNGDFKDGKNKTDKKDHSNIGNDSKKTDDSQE
T3 sequence (Q08499 388-715): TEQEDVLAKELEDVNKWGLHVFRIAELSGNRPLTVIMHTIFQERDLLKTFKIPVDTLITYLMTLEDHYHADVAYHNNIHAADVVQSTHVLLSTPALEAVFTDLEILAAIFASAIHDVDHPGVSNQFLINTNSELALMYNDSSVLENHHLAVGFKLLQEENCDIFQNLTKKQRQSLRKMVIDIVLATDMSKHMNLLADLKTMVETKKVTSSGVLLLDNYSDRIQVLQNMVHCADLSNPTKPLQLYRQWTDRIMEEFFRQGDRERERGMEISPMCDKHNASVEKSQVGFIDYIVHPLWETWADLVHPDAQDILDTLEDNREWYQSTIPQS

As to `COc1ccc(OCc2ccc(C(F)(F)F)cc2)c(C2C(C#N)=C(N)Oc3[nH]nc(C)c32)c1` (single isomer, unassigned; (-)) [(−)-11h], the inhibition at 0.5 µM in test [1] (PDE2, compound at 0.5 μM) is 87.3%. In test [1] (after chiral resolution of 11h), the “PDE2 inhibitory activity of resolved isomer (in words)” value is “almost inactive”.

For `COc1ccc(OCCCc2ccc(C(F)(F)F)cc2)c(C2C(C#N)=C(N)Oc3[nH]nc(C)c32)c1` (stereo not drawn) [Compound 11o, 6-Amino-4-(5-methoxy-2-(3-(4-(trifluoromethyl)phenyl)propoxy)phenyl)-3-methyl-1,4-dihydropyrano[2,3-c]pyrazole-5-carbonitrile], the inhibition at 0.5 µM in test [1] (PDE2, compound at 0.5 μM) was found to be 8.2%.

Take `COc1ccc(OCc2ccc(C(F)(F)F)cc2)c(C2C(C#N)=C(N(C)C)Oc3[nH]nc(C)c32)c1` (stereo not drawn) [Compound 16, 6-(Dimethylamino)-4-(5-methoxy-2-((4-(trifluoromethyl)benzyl)oxy)phenyl)-3-methyl-1,4-dihydropyrano[2,3-c]pyrazole-5-carbonitrile]: in test [1] (PDE2, compound at 0.5 μM), the inhibition at 0.5 µM turned out to be 9.6%.

Consider `Cc1n[nH]c2c1C(c1cc(O)ccc1OCc1ccc(C(F)(F)F)cc1)C(C#N)=C(N)O2` (stereo not drawn) [Compound 11m, 6-Amino-4-(5-hydroxy-2-((4-(trifluoromethyl)benzyl)oxy)phenyl)-3-methyl-1,4-dihydropyrano[2,3-c]pyrazole-5-carbonitrile], for which, in test [1] (PDE2, compound at 0.5 μM), the “Inhibition Ratio (%) 0.5 μM” value is on record as “no inhibition” and the inhibition at 0.5 µM is 0%.

Regarding `CCCCCC[C@@H]([C@@H](C)O)n1cnc2c(N)ncnc21` (racemic) [EHNA, erythro-9-(2-hydroxy-3-nonyl) adenine, reference compound], the IC50 in test [1] was 2460 nM.

On to `COc1ccc(COc2cc(OC)ccc2C2C(C#N)=C(N)Oc3[nH]nc(C)c32)cc1` (stereo not drawn) [Compound 11a, 6-Amino-4-(4-methoxy-2-((4-methoxybenzyl)oxy)phenyl)-3-methyl-1,4-dihydropyrano[2,3-c]pyrazole-5-carbonitrile], for which the inhibition at 0.5 µM in test [1] (PDE2, compound at 0.5 μM) is 27%.

On to `COc1ccc([C@H]2C(C#N)=C(N)Oc3[nH]nc(C)c32)cc1OCc1ccc(Cl)cc1` [(R)-LZ77], for which the inhibition at 0.1 µM in test [1] (PDE2) came to 30.4%. Besides, the inhibition at 0.5 µM in test [1] (PDE2, compound at 0.5 μM) stood at 67.5%. In addition, in test [1], the IC50 was 261 ± 11.2 nM.

In the case of `COc1ccc(C2C(C#N)=C(N)Oc3[nH]nc(C)c32)cc1OCc1ccc(Cl)cc1` (stereo not drawn) [4a (LZ77), 6-Amino-4-(3-((4-chlorobenzyl)oxy)-4-methoxyphenyl)-3-methyl-1,4-dihydropyrano[2,3-c]pyrazole-5-carbonitrile], in test [1] (PDE2), the inhibition at 0.1 µM was 18.2%. For the same compound, the inhibition at 0.5 µM in test [1] (PDE2, compound at 0.5 μM) is 57.2%. Further, the IC50 in test [1] stood at 407 ± 37.7 nM.

Regarding `COc1ccc(OCc2ccc(C(F)(F)F)cc2)c(C2C(C#N)=C(N)Oc3[nH]nc(C)c32)c1` (single isomer, unassigned; (+)) [(+)-11h], the values for the IC50 (against PDE1C (2–634); against PDE4D2 (86–413); in test [1]) were 8760 ± 668 nM, > 10000 nM and 41.5 ± 3.4 nM, respectively. In addition, the inhibition at 0.1 µM in test [1] (PDE2) was found to be 75.9%. The inhibition at 0.5 µM in test [1] (PDE2, compound at 0.5 μM) was determined as 93.6%.

Turning to `COc1cc(OCc2ccc(C(F)(F)F)cc2)cc(C2C(C#N)=C(N)Oc3[nH]nc(C)c32)c1` (stereo not drawn) [Compound 4b, 6-Amino-4-(3-methoxy-5-((4-(trifluoromethyl)benzyl)oxy)phenyl)-3-methyl-1,4-dihydropyrano[2,3-c]pyrazole-5-carbonitrile], in test [1] (PDE2, compound at 0.5 μM), the inhibition at 0.5 µM was 14.1%.

For the compound `Cc1ccc(OCc2ccc(C(F)(F)F)cc2)c(C2C(C#N)=C(N)Oc3[nH]nc(C)c32)c1` (stereo not drawn) [Compound 11k, 6-Amino-3-methyl-4-(5-methyl-2-((4-(trifluoromethyl)benzyl)oxy)phenyl)-1,4-dihydropyrano[2,3-c]pyrazole-5-carbonitrile], in test [1] (PDE2), the inhibition at 0.1 µM was 38.3%. Further, in test [1] (PDE2, compound at 0.5 μM), the inhibition at 0.5 µM came out at 72%. Besides, in test [1], the IC50 stood at 154 ± 3.3 nM.

Take `COc1ccc(OCCc2ccc(C(F)(F)F)cc2)c(C2C(C#N)=C(N)Oc3[nH]nc(C)c32)c1` (stereo not drawn) [Compound 11n, 6-Amino-4-(5-methoxy-2-(4-(trifluoromethyl)phenethoxy)phenyl)-3-methyl-1,4-dihydropyrano[2,3-c]pyrazole-5-carbonitrile]: in test [1] (PDE2, compound at 0.5 μM), the inhibition at 0.5 µM was found to be 20.7%.
